Converted amounts (≈) assume the structure as drawn. Counter-ions that a name gives are not always drawn.
Tests used:
aqueous solubility = assay type: physicochemical; settings: water, dihydrochloride salts
[1] = system: ADP-induced aggregation of human blood platelets; assay: cells; assay type: cell-based; settings: Platelet, read-out: IC50 vs ADP in human PRP
Description: The aggregometer method of Born, C. V. R., J. Physiol., (London), 162, 67-68, (1962) as modified by Mustard, J. F., et al., J. Lab. Clin. Med., 64, 548-599, (1964) was used to assess the in vitro activity of the various compounds as to the inhibition of adenosine diphosphate (ADP) and collagen-induced platelet aggregation. The human volunteer donor's arm is cleansed with 70% ethyl alcohol. A sterile 20 ml syringe and needle are used to withdraw 20 ml of blood. The blood is immediately added to a test tube containing 3.8% sodium citrate to prevent clotting (1 part citrate to 9 parts blood).
Platelet rich plasma (PRP) was separated by centrifugation for 10 minutes at 1000 rpm (140xg) from citrated (3.8%) human blood. All glassware used for preparation of PRP is silicon treated. ADP in final concentration of 0.5 μg/mL or 0.05 mL of a collagen suspension prepared according to the method described by Evans, G., et al., J. Exp. Med., 128, 877-894, (1968) was used to induce aggregation. The various compounds tested were dissolved in dimethylsulfoxide (DMSO) so that 5 μl added to the platelet rich plasma would yield the desired test concentration. Vehicle control trials were done and compared with aggregation induced in platelet rich plasma containing various concentrations of the test compounds. Dose response curves were obtained and Inhibitor Concentration (IC50) values calculated.
The target compounds were evaluated as inhibitors of ADP-induced aggregation of human blood platelets in platelet-rich-plasma (PRP) in vitro. The test compounds were incubated at about 37° C. in PRP for about 3 minutes prior to the addition of sufficient ADP to provide a final ADP concentration of 5.86 μM.

SMILES | solubility (aqueous solubility) [µg/mL] | IC50 [1] [µg/mL]
Oc1nc2cc3cc(OCCCc4nnnn4C4CCN(CCc5ccccc5)CC4)ccc3[nH]c-2n1 [Cmpd 12g, [5-[3-f 2,3-Dihydro-2-oxo-1H-imidazo[4,5-b]quinolin-7-yloxy)propyl]-1H-tetrazol-1-yl]-1-(2-phenylethyl) piperidine dihydrochloride] | < 5000 | 0.048
Cl.Cl.O=c1[nH]c2cc3cc(OCCCc4nnnn4C4CCN(CC5CCCC5)CC4)ccc3nc2[nH]1 [Cmpd 12h, 1-Cyclopentylmethyl-4-[5-[3-(2,3-dihydro-2-oxo-1H-imidazo[4,5-b]quinolin-7-yloxy)propyl]-1H-tetrazol-1-yl]piperidine dihydrochloride] | 2000 to 3000 | 0.005
Oc1nc2cc3cc(OCCCCc4nnnn4C4CCNCC4)ccc3[nH]c-2n1 [Cmpd 13a, dihydrochloride] | ~5000 | 2.6
Oc1nc2cc3cc(OCCCc4nnnn4C4CCN(Cc5ccccc5)CC4)ccc3[nH]c-2n1 [Cmpd 12b, [5-[3-(2,3-Dihydro-2-oxo-1H-imidazo [4,5-b]quinolin-7-yloxy)propyl]-1H-tetrazol-l-yl]-1-(phenylmethyl) piperidine dihydrochloride] | > 10000 | 0.022
CCCC(CCC)CN1CCC(n2nnnc2CCCOc2ccc3nc4[nH]c(=O)[nH]c4cc3c2)CC1 [Cmpd 12j, [5-[3-(2,3-Dihydro-2-oxo-1H-imidazo [4,5-b]quinolin-7-yloxy)propyl]-1H-tetrazol-1-yl]-1-(2-propylpent-1-yl) piperidine dihydrochloride] | ~2000 | 0.048
Oc1nc2cc3cc(OCCCc4nnnn4C4CCN(CC5CCCCO5)CC4)ccc3[nH]c-2n1 (stereo not drawn) [Cmpd 12k, [5-[3-(2,3-Dihydro-2-oxo-1H-imidazo[4,5-b]quinolin-7-yloxy)propyl]-1H-tetrazol-1-yl]-1-[(terahydro-2H-pyran-2-yl)methyl]piperidine dihydrochloride] | > 10000 | 0.04
CCC(CC)CN1CCC(n2nnnc2CCCOc2ccc3nc4[nH]c(=O)[nH]c4cc3c2)CC1 [Cmpd 12e, [5-[3-(2, 3 -Dihydro-2-oxo-1H-imidazo [4,5-b]quinolin-7-yloxy)propyl]-1l H-tetrazol-1-yl]-1-(2-ethylbut-1-yl) piperidine dihydrochloride] | > 10000 | 0.007
CC(C)CN1CCC(n2nnnc2CCCCOc2ccc3nc4[nH]c(=O)[nH]c4cc3c2)CC1 [Cmpd 13f, dihydrochloride] | > 10000 | 0.005
CC(C)CN1CCC(n2nnnc2CCCOc2ccc3nc4[nH]c(=O)[nH]c4cc3c2)CC1 [Cmpd 12f, [5-[3-(2,3-Dihydro-2-oxo-1H-imidazo[4,5-b]quinolin-7-yloxy)propyl]-1H-tetrazol-1-yl]-1-(2-methylprop-1-yl) piperidine dihydrochloride] | > 10000 | 0.005
Oc1nc2cc3cc(OCCCCc4nnnn4C4CCN(Cc5ccccc5)CC4)ccc3[nH]c-2n1 [Cmpd 13b, dihydrochloride] | > 5000 | 0.018
Oc1nc2cc3cc(OCCCc4nnnn4C4CCN(Cc5ccc(F)cc5)CC4)ccc3[nH]c-2n1 [Cmpd 12c, [5-[3-(2,3-Dihydro-2-oxo-1H-imidazo[4,5-b]quinolin-7-yloxy)propyl]-1H-tetrazol-l-yl]-1-[(4-fluorophyl)methyl]piperidine dihydrochloride] | > 10000 | 0.019
Oc1nc2cc3cc(OCCCCc4nnnn4C4CCN(Cc5ccc(F)cc5)CC4)ccc3[nH]c-2n1 [Cmpd 13c, dihydrochloride] | > 5000 | 0.031
CCOC(=O)N1CCC(n2nnnc2CCCOc2ccc3nc4[nH]c(=O)[nH]c4cc3c2)CC1 [Cmpd 10a, Ethyl 4-[5-[3-(2,3-dihydro-2-oxo-1H-imidazo[4,5-b]quinolin-7-yloxy)propyl]-1H-tetrazol-1-yl]-1-piperidinecarboxylate] | – | 0.2 (≈ 0.429 µM)
Cl.Cl.O=c1[nH]c2cc3cc(OCCCc4nnnn4C4CCN(CC5CCCCCC5)CC4)ccc3nc2[nH]1 [Cmpd 12i, 1-Cycloheptylmethyl-4-[5-[3-(2,3-dihydro-2-oxo-1H-imidazo[4,5-b]quinolin-7-yl-oxy)propyl]-1H-tetrazol-1-yl]piperidine dihydrochloride] | ~1000 | 0.01
Oc1nc2cc3cc(OCCCc4nnnn4C4CCNCC4)ccc3[nH]c-2n1 [Cmpd 12a, [5-[3-(2,3-Dihydro-2-oxo-1H-imidazo[4,5-b]quinolin-7-yloxy)propyl]-1H-tetrazol-1-yl]piperidine dihydrochloride] | > 20000 | 5.4
CCOC(=O)N1CCC(n2nnnc2CCCCOc2ccc3nc4[nH]c(=O)[nH]c4cc3c2)CC1 [Cmpd 10b] | – | 0.05 (≈ 0.104 µM)
CCC(CC)CN1CCC(n2nnnc2CCCCOc2ccc3nc4[nH]c(=O)[nH]c4cc3c2)CC1 [Cmpd 13e, [5-[3-(2,3-Dihydro-2-oxo-1H-imidazo[4,5-b]quinolin-7-yloxy)butyl]-1H-tetrazol-1-yl]-1-(2-ethybut-1-yl) piperidine dihyudrochloride] | > 5000 | 0.0068 (≈ 0.0138 µM)
Oc1nc2cc3cc(OCCCc4nnnn4C4CCN(CC5CCCCC5)CC4)ccc3[nH]c-2n1 [Cmpd 12d, (Cyclohexylmethyl)-4-[5-[3-(2,3-dihydro-2-oxo-1H-imidazo[4,5-b]quinolin-7-yloxy)propyl]-1H-tetrazol-1-yl]piperidine dihydrochloride] | > 10000 | 0.009
Oc1nc2cc3cc(OCCCCc4nnnn4C4CCN(CC5CCCCC5)CC4)ccc3[nH]c-2n1 [Cmpd 13d, dihydrochloride] | > 5000 | 0.012

Reference: patent publication US5348960A, “Imidazo[4,5-b]quinolinyl oxy alkyl tetrazolyl piperidine derivatives” (Bristol-Myers Squibb Company, priority 1993, dated 1994)
